Assay results reported in ChEMBL document CHEMBL1129881 (Bioorg Med Chem Lett, 1997).

Biological target: Vasopressin V2 receptor (Sus scrofa, UniProt P32307)
Test: Tested for the inhibition to V2 subtype receptor using [3H]- (VS2) as radioligand at 3 nM and arginine-vasopressin at 2 uM in LLCPKI cells
Assay type: cell-based

Sequence of Vasopressin V2 receptor (P32307 whole entry): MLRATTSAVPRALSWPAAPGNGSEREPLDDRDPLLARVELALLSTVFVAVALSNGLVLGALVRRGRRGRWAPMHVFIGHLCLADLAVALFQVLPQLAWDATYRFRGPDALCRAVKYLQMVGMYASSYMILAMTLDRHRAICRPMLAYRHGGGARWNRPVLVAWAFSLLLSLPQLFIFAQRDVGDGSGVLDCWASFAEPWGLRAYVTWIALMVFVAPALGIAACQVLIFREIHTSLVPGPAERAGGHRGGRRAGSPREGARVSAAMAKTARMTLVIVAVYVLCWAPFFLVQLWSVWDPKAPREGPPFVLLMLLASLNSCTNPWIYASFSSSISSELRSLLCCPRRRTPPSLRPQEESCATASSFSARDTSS

- IC50: 9.5 nM
SMILES: NC(=O)CC[C@@H]1NC(=O)[C@H](Cc2ccccc2)NC(=O)[C@H](Cc2ccc(O)cc2)NC(=O)[C@@H](N)CSSSC[C@@H](C(=O)N2CCC[C@H]2C(=O)N[C@@H](CCCN=C(N)N)C(=O)NCC(N)=O)NC(=O)[C@H](CC(N)=O)NC1=O
